The values that follow come from patent EP0363230A2, “Use of acetogenins in therapy as antiparasitic substances” (LA[…] Société anonyme dite:, priority 1988, dated 1990).

Data set [1] concerns cellules KB. Put plainly: Cytotoxic effect on KB cells (dose lethal for 100 % of cells). Format: cell-based, humain. The following applies: 3 days at 37°C, dose lethal for 100 % of cells (complete disappearance of the cell layer). From the text:
(§1) La toxicité a été évaluée par la mesure de la cytotoxicité et de la cytostase vis-à-vis de cellules KB selon une technique usuelle. L'activité antiparasitaire a été déterminée in vitro sur Leishmania donovani, promastigote selon un protocole opératoire décrit ci-après.
(§2) On fait appel à des cellules épithéliales KB provenant d'un carcinome oral épidermoïde humain obtenues selon H. EAGLE "Propagation in a fluid medium of a human epidermoid carcinoma strain KB (21811)", Proc. Soc. Exp. Biol. and Med., 89, pages 362-364, (1955) et commercialisées par la Société dite EUROBIO.
(§3) Le milieu de culture utilisé avait la composition suivante
(§4) L'ensemencement se fait en boîte de 12 cupules contenant chacune 2 ml du milieu. Le produit à tester est mis en solution dans le diméthylsulfoxyde (DMSO) et dilué par du milieu de culture. La solution ainsi obtenue est ajoutée au milieu de culture pour obtenir des concentrations en produit à tester de 5, 10, 20, 30, 40, et […] par ml de milieu. Les cellules sont ajoutées en même temps que la solution du produit à tester.
(§5) Le milieu ensemencé et ainsi traité est mis à l'étuve à 37°C pendant 3 jours. Après fixation des cellules par la méthode dite au cristal violet [selon la technique de R.J. GILLIER et al., "Determination of cell number in monolayer cultures", Analytical Biochemistry 159, pages 109-113, (1986)]. […]

The subject of data set [2] is Leishmania donovani, promastigote. Put plainly: Anti-Leishmania effect in vitro (growth inhibition of promastigotes, cell count). Format: cell-based. To be noted: for inhibition (I%): growth inhibition of Leishmania donovani promastigotes; for DI-50: dose of 50 % inhibition, 26°C; for DI-50 / DImax: Leishmania donovani LRC L52 promastigotes, 3 to 4 days; for DImax: dose of maximal measured inhibition. Here is the method:
as §1
On fait appel à une souche de Lieshmania donovani LRC L52 (de la collection OMS).
as §3
L'ensemencement se fait dans des boîtes de 24 cupules contenant chacune 500 µl de milieu. Le milieu est ensemencé par 500 000 promastigotes par cupule puis placé dans une étuve à CO₂ à 26°C pendant 3 à 4 heures.
Le produit à tester est ajouté en solution dans le DMSO à des concentrations variables sous un volume de 25 µl par cupule. Les boîtes ensemencées et traitées par le produit sont laissées à l'étuve pendant 3 à 4 jours.
La mesure de l'activité est effectuée par comptage des cellules à l'hémocytomètre, le nombre obtenu étant rapporté à un témoin dépourvu de produit (100 % de cellules, soit 0 % d'inhibition de croissance). Chaque manipulation est effectuée 2 fois.
Les résultats obtenus sont également consignés dans le tableau I ci-après où sont données les doses d'inhibition à 50 % (DI-50) et les doses d'inhibition maximale mesurées (DImax).

The test system of data set [3] is cellules KB. Put plainly: Cytostatic effect on KB cells (crystal violet, optical density at 590 nm). The following applies: 3 days at 37°C, optical density at 590 nm versus control, ***/** = statistical significance. Format: cell-based, humain.
Text: as §1, §2, §3, §4, §5

Consider `CCCCCCCCCC(O)CC1CCC(C2CCC(C(O)CCCCCCCCCCC(O)CCC3=CC(C)OC3=O)O2)O1` (stereo not shown) [Ex 8, 2-[5-(2-hydroxyundécyl)-2-tétrahydrofurannyl]-5-[14-(5-méthyl-2-oxo-2,5-dihydro-3-furannyl)-1,12-dihydroxytétradécyl]-tétrahydrofuranne], for which, in the data set on cellules KB [1], the Cytotoxicité amounted to 40 µg·mL. The “inhibition (I%)” value in data set [2] (DI = 20 µg.ml) is on record as 11%. Moreover, in data set [2], the DI-50 was over 20 µg·mL and the DImax turned out to be 20 µg·mL. The Cytostase with cellules KB [3] is recorded as 20** µg.ml.
`CCCCCCCCCC(O)CC1CCC(C2CCC(C(O)CCCC(O)CCCCCCC(O)CCC3=CC(C)OC3=O)O2)O1` (stereo not shown) [Ex 1, 2-[5-(2-hydroxyundécyl)-2-tétrahydrofurannyl]-5-[14-(5-méthyl-2-oxo-2,5-dihydro-3-furannyl)-1,5,12-trihydroxytétradécyl]-tétrahydrofuranne] gave a Cytotoxicité with cellules KB [1] of 40 µg·mL. Moreover, in data set [2] (DI = 10 µg.ml), the “inhibition (I%)” value is reported as 100%. Besides, in data set [2], the DI-50 was 2,5 µg.ml and the DImax was 10 µg·mL. For the same compound, the Cytostase in the data set with cellules KB [3] is given as 20*** µg.ml.
